Reference: the supplement of paper PMC10307832

Tests used:
Assay in all cases: relative viability (nuclei count vs DMSO), 5 days (fraction); higher = more cells survive
QS11 + Bortezomib = compound: C1CC2=C(C1)C=C(C=C2)OC3=NC(=C4C(=N3)N(C=N4)CC5=CC=C(C=C5)C6=CC=CC=C6)N[C@@H](CC7=CC=CC=C7)CO [QS11] + CC(C)C[C@H](NC(=O)[C@H](Cc1ccccc1)NC(=O)c1cnccn1)B(O)O [Bortezomib] (partner 0.002 µM)
Summary of the method: (§1)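 Relative viability divides the nuclei count in treated wells by that in vehicle wells. Lung cancer cell lines were seeded in 1536-well plates, dosed by pin tool the next day, and fixed and stained after 5 days in one step with final 0.05% Triton X-100, 1% formaldehyde and 1 ug/ml Hoechst. Dosing was a single drug or a fixed anchor-drug dose plus five library-drug doses (not always all listed) in √10 steps, and values are medians of duplicate plates imaged at 4×.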

QS11 + Luminespib = compound: C1CC2=C(C1)C=C(C=C2)OC3=NC(=C4C(=N3)N(C=N4)CC5=CC=C(C=C5)C6=CC=CC=C6)N[C@@H](CC7=CC=CC=C7)CO [QS11] + CCNC(=O)c1noc(-c2cc(C(C)C)c(O)cc2O)c1-c1ccc(CN2CCOCC2)cc1 [Luminespib] (partner 0.01 µM)
Summary of the method: as §1

QS11 + Pictilisib = compound: C1CC2=C(C1)C=C(C=C2)OC3=NC(=C4C(=N3)N(C=N4)CC5=CC=C(C=C5)C6=CC=CC=C6)N[C@@H](CC7=CC=CC=C7)CO [QS11] + CS(=O)(=O)N1CCN(Cc2cc3nc(-c4cccc5[nH]ncc45)nc(N4CCOCC4)c3s2)CC1 [Pictilisib] (partner 1 µM)
Summary of the method: as §1

[1] = compound: C[As](C)SC[C@H](NC(=O)CC[C@H](N)C(=O)O)C(=O)NCC(=O)O [Darinaparsin] + CC(=O)Nc1cccc(-n2c(=O)n(C3CC3)c(=O)c3c(Nc4ccc(I)cc4F)n(C)c(=O)c(C)c32)c1 [Trametinib] (partner 0.02 µM)
Summary of the method: as §1

Row | Cell Line | relative viability (QS11 + Bortezomib; first compound 0.08 µM) | relative viability (QS11 + Bortezomib; first compound 0.253 µM) | relative viability (QS11 + Bortezomib; first compound 0.8 µM) | relative viability (QS11 + Bortezomib; first compound 2.53 µM) | relative viability (QS11 + Bortezomib; first compound 8 µM) | relative viability (QS11 + Luminespib; first compound 0.08 µM) | relative viability (QS11 + Luminespib; first compound 0.253 µM) | relative viability (QS11 + Luminespib; first compound 0.8 µM) | relative viability (QS11 + Luminespib; first compound 2.53 µM) | relative viability (QS11 + Luminespib; first compound 8 µM) | relative viability (QS11 + Pictilisib; first compound 0.08 µM) | relative viability (QS11 + Pictilisib; first compound 0.253 µM) | relative viability (QS11 + Pictilisib; first compound 0.8 µM) | relative viability (QS11 + Pictilisib; first compound 2.53 µM) | relative viability (QS11 + Pictilisib; first compound 8 µM) | relative viability ([1]; first compound 0.08 µM) | relative viability ([1]; first compound 0.8 µM) | relative viability ([1]; first compound 2.53 µM) | relative viability ([1]; first compound 8 µM)
1 | NCI-H2347 | 1.11 | 1.19 | 0.757 | 0.997 | 1.04 | 0.367 | 0.571 | 0.505 | 0.352 | 0.886 | 0.537 | 0.715 | 0.699 | 0.606 | 0.666 | 0.249 | 0.266 | 0.307 | 0.242
2 | NCI-H2405 | 0.926 | 0.946 | 0.895 | 1.03 | 1.03 | 0.516 | 0.756 | 0.646 | 0.835 | 0.89 | 0.393 | 0.412 | 0.468 | 0.756 | 0.567 | 0.702 | 0.562 | 0.55 | 0.668
3 | NCI-H3122 | 1.03 | 1.1 | 0.67 | 1.07 | 0.864 | 0.114 | 0.148 | – | 0.114 | 0.109 | 0.566 | 0.693 | 0.467 | 0.71 | 0.722 | 0.231 | 0.208 | 0.216 | 0.347
4 | PC-3 [JPC-3] | 0.827 | 0.88 | 0.767 | 0.828 | 0.678 | 0.708 | 0.729 | 0.663 | 0.718 | 0.703 | 0.699 | 0.652 | 0.707 | 0.648 | 0.601 | 0.758 | 0.737 | 0.704 | 0.659
5 | PC-14 | 0.7 | 0.887 | 0.979 | 0.741 | 0.731 | – | 0.14 | 0.183 | 0.135 | 0.148 | 0.658 | 0.639 | 0.667 | 0.569 | 0.604 | 1.08 | 0.798 | 0.741 | 0.923
6 | RERF-LC-KJ | 1.05 | 1.1 | 0.956 | 0.932 | 0.941 | 1.5 | 1.35 | 1.04 | 1.22 | 1.11 | 0.628 | 0.563 | 0.506 | 0.517 | 0.497 | 0.933 | 0.933 | 0.93 | 0.817
7 | SK-LU-1 | 1.03 | 1.11 | 1.09 | 1.16 | 1.29 | 0.21 | 0.192 | 0.211 | 0.223 | 0.211 | 0.455 | 0.679 | 0.534 | 0.552 | 0.531 | 0.625 | 0.401 | 0.382 | 0.521
8 | SW 1573 | 0.957 | 1.07 | 0.971 | 1.12 | 0.837 | 0.239 | 0.239 | 0.198 | 0.21 | 0.235 | 0.53 | 0.481 | 0.425 | 0.311 | 0.298 | 0.589 | 0.516 | 0.58 | 0.744
9 | UMC-11 | 0.668 | 0.851 | 0.816 | 1.01 | 0.68 | 1.01 | 1.13 | 0.995 | 1.27 | 1.12 | 0.748 | 0.844 | 0.899 | 0.901 | 1.12 | 0.781 | 0.643 | 0.729 | 0.704
